How the values were obtained:
Human lung tryptase = experiment: Ki determination, human lung tryptase (Tosyl-Gly-Pro-Arg-pNA substrate); format: biochemical; conditions: 50 mM Tris-HCl pH 8.0, 37° C., 1 nM tryptase, 320 μM GPR-pNA; read-out: Experimentally Determined Ki, Tryptase
Method: (§1) Protease inhibition was assayed according to published procedures with minor modifications using various proteases and specific chromogenic peptide p-nitroanilide substrates. Assays were performed in Costar ultra-low cluster 96-well microtiter plate (Costar Corning Corp., Cambridge Mass.). Each protease was incubated with various concentrations of the test compound for 15 min. at 37° C. or as otherwise indicated, in specific assay buffer, and the residual activity was then measured by addition of the substrate. p-Nitroaniline produced by the proteolysis was determined by measuring the change in absorbance at 405 nm on a SpectraMAX 340 plate reader (Molecular devices, Sunnyvale, Calif.).
(§2) 1. The inhibition constant, Ki is calculated from individual data points using the equation for a tight-binding inhibitor (See Beith, "Proteinase Inhibitors-Proceedings of 2nd Int. Res. Conference", Fritz, et al. eds, New York, p.4463-4469 (1974)):
(§3) vi /vo [((Ki '+[I]+[E]o)^2 -4 [I]o
(§4) [E]o)^1/2 (Ki '+[I]o -[E]o)]/2[E]o
(§5) where Ki ' is apparent inhibition constant; vi and vo are the inhibited and uninhibited rates, respectively; [I]o and [E]o are the total concentrations of inhibitor and enzyme, respectively.
(§6) [note: [E]o is determined by active site titration of enzyme]
(§7) The Ki values are obtained by correcting Ki ' values for the effect of substrate concentration according to: [formula]
(§8) 2. Other inhibition data (Ki >>[E]o), the Ki is calculated from using the equations for a competitive inhibitor: [formula]
Human lung tryptase purchased from Cortex Biochem (San Leandro, Calif.) was purified further on a Superdex 200 gel-filtration column. The active-site concentration of the enzyme was determined by spectrophotometric titration with 4-nitrophenyl 4'-guanidinobenzoate according to Schwartz, et al., J. Immunol., 114, 2304-2311 (1990). Tryptase activity was measured according to the procedures of Schwartz, et al., J. Biol. Chem., 261, 7372-7379 (1986) (See also, Schwartz, L. B., Methods In Enzymology, 244, 88 (1994)) with minor modifications, using Tosyl-Gly-Pro-Arg-p-nitroanilide ("GPR-pNA", Sigma Chemical Co., St. Louis, Mo., T-1637) as a chromogenic substrate. The reaction was performed in 50 mM Tris-HCl, pH 8.0, containing 150 mM NaCl and 0.02% Triton X-100 at 37° C. in Costar ultra-low cluster 96-well microtiter plates (Costar Corning Corp., Cambridge, Mass.). The amount of pNA produced by tryptase was determined by measuring the change in absorbance at 405 nm on a SpectraMAX 340 plate reader (Molecular devices, Sunnyvale, Calif.). The Km for the substrate was determined by Lineweaver-Burk analysis from initial velocities of substrate hydrolysis. The inhibition assay was carried out in a total volume of 200 μL. Tryptase (30 μL- final concentration 1 nM) was incubated with various concentrations of sample compound (50 μL) to be tested in the above assay buffer for 5 min. The reaction was started by the addition of substrate GPR-pNA (40 μL-final concentration 320 μM), and the residual activity was measured after 15 min. of incubation. The inhibition constant, Ki, was determined by fitting the inhibition data to a two-site competitive binding equation using data analysis program GraphPad PRISM (GraphPad Software, Inc., San Diego, Calif.).
(§9) The inhibition constant (Ki) of the test compounds against each proteolytic enzyme was determined according to Zitnik et al., Biochem. Biophys. Res. Commun. 232, 687-697 (1997)).

[1] = biological target: T1, Human Neutrophil elastase (Homo sapiens, UniProt P08246); experiment: Ki determination, human neutrophil elastase (pyroGlu-Pro-Val-pNA); format: biochemical; conditions: 100 mM Tris-HCl, pH 8.3, 0.96 M NaCl, 1% BSA; read-out: Experimentally Determined Ki, Elastase
T1 construct: from tissue; host or cells: human neutrophils
T1 sequence (P08246 30-267): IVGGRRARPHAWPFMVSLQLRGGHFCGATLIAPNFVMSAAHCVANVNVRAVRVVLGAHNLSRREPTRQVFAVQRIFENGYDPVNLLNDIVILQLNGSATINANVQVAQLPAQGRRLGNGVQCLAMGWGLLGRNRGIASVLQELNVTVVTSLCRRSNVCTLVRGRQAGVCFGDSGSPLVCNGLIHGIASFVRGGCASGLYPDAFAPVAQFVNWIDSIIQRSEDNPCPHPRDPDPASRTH
Method: as §1, §2, §3, §4, §5, §6, §7, §8
Human Neutrophil elastase activity was determined by using pyroGlu-Pro-Val-pNA in 100 mM Tris-HCl, pH 8.3, 0.96 M NaCl, 1% BSA (See Kramps, et al. Scand. J. Clin. Lab. Invest. 43, 427-432 (1983)).
as §9

Structure (SMILES)	Ki (Human lung tryptase) [nM]	Ki [1] [nM]
N=C(N)c1cccc(S(=O)(=O)NCc2ccc(OCCCCCCOc3ccc(CNS(=O)(=O)c4cccc(C(=N)N)c4)cc3)cc2)c1 [Example 43, 1,6-Bis-{4-[(3-carbamimidoyl-benzenesulfonylamino)-methyl]-phenoxy}-hexane]	110	> 100000
N=C(N)c1cccc(S(=O)(=O)NCc2ccc(OCCCCCCCOc3ccc(CNS(=O)(=O)c4cccc(C(=N)N)c4)cc3)cc2)c1 [Example 45, 1,7-Bis-{4-[(3-carbamimidoyl-benzenesulfonylamino)-methyl]-phenoxy}-heptane]	800	> 100000
N=C(N)c1cccc(S(=O)(=O)NCc2ccc(OCCCOc3ccc(CNS(=O)(=O)c4cccc(C(=N)N)c4)cc3)cc2)c1 [Example 49, 3,1-Bis-{4-[(3-carbamimidoyl-benzenesulfonylamino)-methyl]-phenoxy}-propane]	20	> 100000
N=C(N)c1cccc(S(=O)(=O)NCc2ccc(OCCOc3ccc(CNS(=O)(=O)c4cccc(C(=N)N)c4)cc3)cc2)c1 [Example 51, 1,2-Bis-{4-[(3-carbamimidoyl-benzenesulfonylamino)-methyl]-phenoxy}-ethane]	30	> 100000
N=C(N)c1cccc(S(=O)(=O)NCc2ccc(COCc3ccc(CNS(=O)(=O)c4cccc(C(=N)N)c4)cc3)cc2)c1 [Example 53, 1,3-Bis-{4-[(3-carbamimidoyl-benzenesulfonylamino)-methyl]-phenyl}-2-oxapropane]	100	> 100000
N=C(N)c1cccc(C(=O)NCc2ccc(OCCCCCCCOc3ccc(CNC(=O)c4cccc(C(=N)N)c4)cc3)cc2)c1 [Example 59, 1,7-Bis-{4-[(3-carbamimidoyl-benzenecarbonylamino)-methyl]-phenoxy}-heptane]	80	> 100000
N=C(N)c1cccc(C(=O)NCc2ccc(OCCCOc3ccc(CNC(=O)c4cccc(C(=N)N)c4)cc3)cc2)c1 [Example 63, 1,3-Bis-{4-[(3-carbamimidoyl-benzoylamino)-methyl]-phenoxy}-propane]	20	> 100000
N=C(N)c1ccc(C(=O)NCc2ccc(OCCOc3ccc(CNC(=O)c4ccc(C(=N)N)cc4)cc3)cc2)cc1 [Example 64, 1,2-Bis-{4-[(4-carbamimidoyl-benzoylamino)-methyl]-phenoxy}-ethane]	50	> 100000
N=C(N)c1cccc(C(=O)NCc2ccc(OCCOc3ccc(CNC(=O)c4cccc(C(=N)N)c4)cc3)cc2)c1 [Example 65, 1,2-Bis-{4-[(3-carbamimidoyl-benzoylamino)-methyl]-phenoxy}-ethane]	350	> 100000
N=C(N)c1ccc(C(=O)NCc2ccc(COCc3ccc(CNC(=O)c4ccc(C(=N)N)cc4)cc3)cc2)cc1 [Example 66, 1,3-Bis-{4-[(4-carbamimidoyl-benzenecarbonylamino)-methyl]-phenyl}-2-oxapropane]	380	> 100000
CN(Cc1ccc(OCCCOc2ccc(CN(C)S(=O)(=O)c3cccc(C(=N)N)c3)cc2)cc1)S(=O)(=O)c1cccc(C(=N)N)c1 [Example 68, 1,3-Bis-{4-[(3-carbamimidoyl-benzenesulfonyl-[N-methyl]-amino)-methyl]-phenoxy}-propane]	20	> 100000

These reach a lower Ki (Human lung tryptase). Values come first.

Ki (Human lung tryptase) [nM]	Ki [1] [nM]	Structure (SMILES)
10	> 100000	N=C(N)c1cccc(C(=O)NCc2ccc(OCCCCCCOc3ccc(CNC(=O)c4cccc(C(=N)N)c4)cc3)cc2)c1 [Example 57, 1,6-Bis-{4-[(3-carbamimidoyl-benzenecarbonylamino)-methyl]-phenoxy}-hexane]
1	> 100000	N=C(N)c1ccc(C(=O)NCc2ccc(OCCCCCCCOc3ccc(CNC(=O)c4ccc(C(=N)N)cc4)cc3)cc2)cc1 [Example 58, 1,7-Bis-{4-[(4-carbamimidoyl-benzenecarbonylamino)-methyl]-phenoxy}-heptane]
0.2	> 100000	N=C(N)c1ccc(C(=O)NCc2ccc(OCCCCOc3ccc(CNC(=O)c4ccc(C(=N)N)cc4)cc3)cc2)cc1 [Example 60, 1,4-Bis-{4-[(4-carbamimidoyl-benzenecarbonylamino)-methyl]-phenoxy}-butane]
10	> 100000	N=C(N)c1cccc(C(=O)NCc2ccc(OCCCCOc3ccc(CNC(=O)c4cccc(C(=N)N)c4)cc3)cc2)c1 [Example 61, 1,4-Bis-{4-[(3-carbamimidoyl-benzenecarbonylamino)-methyl]-phenoxy}-butane]
0.5	> 100000	N=C(N)c1ccc(C(=O)NCc2ccc(OCCCOc3ccc(CNC(=O)c4ccc(C(=N)N)cc4)cc3)cc2)cc1 [Example 62, 1,3-Bis-{4-[(4-carbamimidoyl-benzoylamino)-methyl]-phenoxy}-propane]
5	> 100000	N=C(N)c1ccc(C(=O)NCc2cccc(OCCCCCOc3cccc(CNC(=O)c4ccc(C(=N)N)cc4)c3)c2)cc1 [Example 76, 1,5-Bis-{3-[(4-carbamimidoyl-benzenecarbonylamino)-methyl]-phenoxy}-pentane]
10	> 100000	N=C(N)c1cccc(C(=O)NCc2cccc(OCCCCCOc3cccc(CNC(=O)c4cccc(C(=N)N)c4)c3)c2)c1 [Example 77, 1,5-Bis-{3-[(3-carbamimidoyl-benzenecarbonylamino)-methyl]-phenoxy}-pentane]
3	> 100000	N=C(N)c1ccc(C(=O)NCc2ccc(OCCCOc3ccc(CNC(=O)c4cccc(C(=N)N)c4)cc3)cc2)cc1 [Example 85, 4-Carbamimidoyl-N-[4-(3-{4-[(3-carbamimidoyl-benzoylamino)-methyl]-phenoxy}-propoxy)-benzyl]-benzamide]
3	> 100000	N=C(N)c1ccc(C(=O)NCc2ccc(OCCCOc3ccc(CNS(=O)(=O)c4cccc(C(=N)N)c4)cc3)cc2)cc1 [Example 86, 4-Carbamimidoyl-N-[4-(3-{4-[(3-carbamimidoyl-benzenesulfonylamino)-methyl]-phenoxy}-propoxy)-benzyl]-benzamide]
2	> 100000	N=C(N)c1ccc(C(=O)NCc2ccc(OCCCOc3ccc(CNC(=O)c4ccc(CN)cc4)cc3)cc2)cc1 [Example 87, N-[4-(3-{4-[(4-Aminomethyl-benzoylamino)-methyl]-phenoxy}-propoxy)-benzyl]-4-carbamimidoyl-benzamide]
1	> 100000	N=C(N)c1ccc(C(=O)NCc2ccc(OCC3(COc4ccc(CNC(=O)c5ccc(C(=N)N)cc5)cc4)CCC3)cc2)cc1 [Example 93, 1,1-Bis-{4-[(4-carbamimidoyl-benzoyl-amino)-methyl]-phenoxy-methyl}-cyclobutane]
0.2	> 100000	N=C(N)c1ccc2cc(C(=O)NCc3ccc(OCCOc4ccc(CNC(=O)c5ccc6cc(C(=N)N)ccc6c5)cc4)cc3)ccc2c1 [Example 100, 1,2-Bis-{4-[(6-carbamimidoylnaphthalene-2-carbonylamino)-methyl]-phenoxy}-ethane]
